Experimental data reported in patent US20240401058A1, “METHOD OF REGULATING PULMONARY ARTERY VASCULAR REMODELING” (THE TRUSTEES OF INDIANA UNIVERSITY, priority 2021, published 2024).

What was measured:
Type in all cases: cell-based, human
hPASMC = experiment: Cell proliferation rate in hPASMC following EMAP II treatment; settings: inhibitor pretreatment, EMAP II 24 hours
Protocol: Cells were treated with EMAP II or vehicle, cells were rinsed at the desired time point, and lysis buffer was applied.

[1] = tested on: pSPHK2 in nuclear fractions of hPASMC; experiment: Nuclear pSPHK2 in hPASMC after EMAP II treatment (immunoblot of nuclear fractions, immunofluorescence); settings: inhibitor pretreatment, EMAP II 150 minutes
Protocol: Primary human pulmonary artery smooth muscle cells (hPASMC) purchased from Lonza (Walkersville, MD) were cultured in complete growth medium containing smooth muscle growth media-2 (SmGM-2) with 10% FBS and growth factors provided as a kit by the supplier (Lonza, (Walkersville, MD). Cells were cultured in a humidified atmosphere with 5% CO2 at 37° C. For all studies, passages 5-10 were used for hPASMCs. For treatment studies, subconfluent cells plated in multi-well plates were serum starved and if required, pretreated with inhibitors before stimulation with 2 μg/mL recombinant EMAP II. All the controls were handled similar to the test samples. Cells were treated with EMAP II or vehicle, cells were rinsed at the desired time point, and lysis buffer was applied.
After appropriate treatments, protein lysates were prepared by using RIPA buffer (for cells) or home-made lysis buffer (tissue) supplemented with phosphatase and protease inhibitors (Thermo Fisher Scientific). Alpha-tubulin or Vinculin was used as a loading control. For nuclear and cytoplasmic fractionation, NE-PER kit from Thermo Fischer Scientific was used. Western blots were performed according to standard methods and quantified using densitometry using Image Studio Lite software from LI-COR Biosciences. […]

nuclear S1P = experiment: ELISA for S1P quantification in nuclear fractions of hPASMC; settings: inhibitor pretreatment, EMAP II 15 or 150 minutes
Protocol: Equal number of hPASMC cells (15000/[…]) were plated and serum starved for overnight. Cells were pretreated with inhibitors if needed and stimulated for in a series of time points and collected the cells. Cells were pelleted out and washed with PBS. After the extraction of nuclear proteins, protein concentration was measured. S1P levels were measured using S1P ELISA kit (MyBioSource, MBS069092) following manufacturer's instructions. S1P levels were normalized against protein levels.

HDAC = HDAC assay in nuclear fractions of hPASMC; settings: inhibitor pretreatment, EMAP II 150 minutes
Protocol: Equal number of hPASMC cells (15000/[…]) were plated and serum starved for overnight. Cells were pretreated with inhibitors and stimulated for the desired time points and collected. Cells were pelleted out and washed with PBS. After the extraction of nuclear proteins, protein concentration was measured. HDAC levels were measured using HDAC activity flurometric kit (Abcam, ab156064) following manufacturer's instructions. Free unbound HDAC levels were normalized against protein levels.

Ac-H3K9 = experiment: CUT&RUN with acetylated H3K9 antibody in hPASMC; settings: for EMAP II promoted hyperacetylation of H3K9 (Ac-H3K9 peaks): EMAP II 2-3 hours
Protocol: Cleavage Under Targets and Release Using Nuclease (CUT&RUN) was performed with hPASMC using CUTANA® protocol v1.6. For each condition, nuclei from two biological replicates were extracted by incubating cells on ice for 10 min in Nuclei Extraction buffer (NE: 20 mM HEPES-KOH, pH 7.9; 10 mM KCl; 0.1% Triton X-100; 20% Glycerol; 0.5 mM spermidine; 1× complete protease inhibitor (GoldBio), collecting by centrifugation (600 g, 3 min, 4° C.), discarding the supernatant, and resuspending at [100 μl/500K nuclei] sample in NE buffer. For each target 500K nuclei were immobilized onto Concanavalin-A beads (EpiCypher #21-1401) and incubated overnight (4° C. with gentle rocking) with 0.5 μg of antibody IgG (negative control), trimethylated H3K4 (positive control), Ac-H3K9 (all validated to SNAP-ChIP nucleosome standards). CUT&RUN enriched DNA was purified and used to prepare sequencing libraries with the Ultra II DNA Library Prep kit (New England Biolabs #E7645S). Libraries were sequenced on the Illumina NextSeq 550, obtaining ˜8 million paired end reads on average. The CUT&RUN paired reads were used for quality control using FASTQ Groomer (Galaxy Version 1.1.5) and paired ends were aligned against the GRCh38/hg38 reference genome assembly for human using bowtie2 (Galaxy Version 2.4.2+galaxy0). After quality-based filtering with SAM or BAM tools (Galaxy Version 1.8+galaxy1), MACS2 (Galaxy Version 2.1.1.20160309.6) was applied for CUT&RUN peak calling of Ac-H3K9 against the IgG control with genome size of 2.7e9 and then, DiffBind (Galaxy Version 2.10.0) was used to analyze the differential binding sites between the control and rEMAP II treated samples.

iPAH: PASMCs = experiment: Cell proliferation rate of iPAH: PASMCs; settings: iSPHK2 pretreatment 24 hours
Protocol: All studies involving human lung tissues and cells were conducted according to the Institutional review board of Indiana University School of Medicine. Deidentified archived tissues and pulmonary arterial smooth muscle cells (PASMCs) obtained from the Pulmonary Hypertension Breakthrough Initiative (PHBI) biorepository from patients with Idiopathic Pulmonary Arterial Hypertension (iPAH: Group 1 PH) at time of lung transplantation and patients without PH that were failed donor lungs (FDL).
Primary human PASMCs (hPASMCs), pulmonary microvascular endothelial cells (hPMVECs) purchased from Lonza (Walkersville, MD) and iPAH: PASMCs were cultured in complete growth medium or conditioned media in a humidified atmosphere or 1% O2 with 5% CO2 at 37° C. For all studies, passages 5-10 were used for hPASMCs and hPMVECs.

Row | SMILES | EMAP II mediated cell proliferation (hPASMC) | EMAP II induced nuclear activation of SPHK2 (nuclear pSPHK2/lamin B) [1] | EMAP II induced nuclear activation of SPHK2 (nuclear pSPHK2/lamin B) ([1]; listed as iSPHK2) | EMAP II generated nuclear S1P (nuclear S1P) | EMAP II generated nuclear S1P (nuclear S1P; listed as iSPHK2) | HDAC activity (HDAC) | HDAC activity (HDAC; listed as iSPHK2) | HDAC activity (HDAC; listed as iSPHK2 inhibitor) | EMAP II mediated cell proliferation (hPASMC; listed as iSPHK2) | differentially acetylated sites by EMAPII that are altered by iSPHK2 pretreatment (Ac-H3K9) | differentially acetylated upstream sites by EMAPII that are also altered by iSPHK2 pretreatment (Ac-H3K9) | EMAP II promoted hyperacetylation of H3K9 (Ac-H3K9 peaks) (Ac-H3K9; inhibitor pretreatment) | EMAP II promoted hyperacetylation of H3K9 (Ac-H3K9 peaks) (Ac-H3K9; inhibitor pretreatment, listed as iSPHK2) | level of Ac-H3K9 regions in KLF4 (Ac-H3K9; inhibitor pretreatment, EMAPII treated) | proliferation rate (iPAH: PASMCs)
1 | Cc1cc(CS(=O)(=O)c2ccccc2)cc(OCc2ccc(CN3CCCC3CO)cc2)c1 (stereo not shown) [SPHK1 inhibitor, PF643] | blocked EMAPII mediated proliferation |  |  |  |  |  |  |  |  |  |  |  |  |  | 
2 | O=C(NCc1ccncc1)C12CC3CC(C1)CC(c1ccc(Cl)cc1)(C3)C2 [SPHK2 inhibitor, ABC294640] | blocked EMAPII mediated proliferation | ablated the EMAP II induced nuclear activation of SPHK2 | ablated the EMAPII induced nuclear activation of SPHK2 | suppressed EMAP II generated nuclear S1P expression | suppressed EMAPII generated nuclear S1P expression | rescued decreased HDAC activity | rescued the loss of HDAC activity | rescued the loss of HDAC activity | rescued | 5554 sites | 755 sites | partially diminished EMAP II promoted hyperacetylation of H3K9 | partially diminished EMAPII promoted hyperacetylation of H3K9 | rescued the level of Ac-H3K9 regions in EMAPII treated cells | restoring regular proliferation rates in iPAH: PASMCs
